Laboratory results: paper PMC6917776, “Discovery of a chemical probe for PRDM9” (Nature Communications, 2019)
Like-named read-outs stand apart in the source and are kept apart here.

Assay: CelltiterGlo viability cell assay
Format: cell-based
Settings: human
Protocol: Supplementary Figure 13. […] Viability of
(a) Multiple Myeloma lines and (b) Breast Cancer cell lines following 3 or 6 days treatment with […]
manufacturer’s instructions as described in the Supplementary methods. Data are normalized to DMSO control. N=3 biological replicates, +/- SEM. Source data are provided as a Source Data […]
CelltiterGlo viability cell assay
Cells were seeded in 96 well plates at per-well densities of 10000 (MDA-MB436, ATCC-HTB130), 15000 (8226, kind gift from Rodger Tiedemann, Princess Margaret Cancer Centre), […]
kind gift from Rodger Tiedemann, Princess Margaret Cancer Centre) and 50000 (CAL851, kind gift from Mathieu Lupien, Princess Margaret Cancer Centre) and were treated at increasing concentrations of compounds ranging from 0.01 μM to 30 μM and assessed for proliferation using CelltiterGlo (Promega) following manufacturer’s instructions, as readout on days 3 and 6 as indicated. All cell lines were mycoplasma negative, as determined by MycoAlert™ Mycoplasma Detection Kit(Lonza). […]

[1] = MDA-MB-436 breast cancer cells, MDA MB436, 3 day, read-out: viability Replicate 2
[2] = MDA-MB-436 breast cancer cells, MDA MB436, 3 day, read-out: viability Replicate 3
[3] = MDA-MB-436 breast cancer cells, MDA MB436, 3 day, read-out: viability Average
[4] = MDA-MB-436 breast cancer cells, MDA MB436, 3 day, read-out: viability Replicate 1
[5] = MDA-MB-436 breast cancer cells, MDA MB436, 6 day, read-out: viability Average
[6] = MDA-MB-436 breast cancer cells, MDA MB436, 6 day, read-out: viability Replicate 1
[7] = MDA-MB-436 breast cancer cells, MDA MB436, 6 day, read-out: viability Replicate 2
[8] = MDA-MB-436 breast cancer cells, MDA MB436, 6 day, read-out: viability Replicate 3
[9] = MDA-MB-436 cells, MDA MB436, 3 day, read-out: viability Replicate 1
[10] = MDA-MB-436 cells, MDA MB436, 3 day, read-out: viability Replicate 2
[11] = RPMI-8226 cells (multiple myeloma line), 8226, 3 day, read-out: viability Average
[12] = RPMI-8226 cells (multiple myeloma line), 8226, 3 day, read-out: viability Replicate 1
[13] = RPMI-8226 cells (multiple myeloma line), 8226, 3 day, read-out: viability Replicate 2
[14] = RPMI-8226 cells (multiple myeloma line), 8226, 3 day, read-out: viability Replicate 3
[15] = RPMI-8226 cells (multiple myeloma line), 8226, 6 day, read-out: viability Average
[16] = RPMI-8226 cells (multiple myeloma line), 8226, 6 day, read-out: viability Replicate 1
[17] = RPMI-8226 cells (multiple myeloma line), 8226, 6 day, read-out: viability Replicate 2
[18] = RPMI-8226 cells (multiple myeloma line), 8226, 6 day, read-out: viability Replicate 3
[19] = RPMI-8226 cells, 8226, 3 day, read-out: viability Average
[20] = RPMI-8226 cells, 8226, 3 day, read-out: viability Replicate 1
[21] = RPMI-8226 cells, 8226, 3 day, read-out: viability Replicate 2
[22] = RPMI-8226 cells, 8226, 3 day, read-out: viability Replicate 3
[23] = RPMI-8226 multiple myeloma cells, 8226, 3 day, read-out: viability Average

**Q.** For `COc1cc(OC)cc(-c2noc(N3CCN(C)C4(CCN(c5ccnc(C)c5)CC4)C3)n2)c1` [MRK-740], which viability at 3 day, 0.01 µM [1] is on record?
**A.** 98.8%

**Q.** What about the viability at 3 day, 0.01 µM [2] of the same molecule?
**A.** 92%

**Q.** What about the viability at 3 day, 0.03 µM [3] of the same molecule?
**A.** 105%

**Q.** What about the viability at 3 day, 0.03 µM [4] of the same molecule?
**A.** 124%

**Q.** And the viability at 3 day, 0.03 µM [1]?
**A.** 99.1%

**Q.** And the viability at 3 day, 0.03 µM [2]?
**A.** 92%

**Q.** What about the viability at 3 day, 0.3 µM [3] of the same molecule?
**A.** 94.8%

**Q.** And the viability at 3 day, 0.3 µM [2]?
**A.** 92.8%

**Q.** And the viability at 3 day, 1 µM [3]?
**A.** 104%

**Q.** And the viability at 3 day, 1 µM [4]?
**A.** 114%

**Q.** What about the viability at 3 day, 1 µM [1] of the same molecule?
**A.** 105%

**Q.** What about the viability at 3 day, 1 µM [2] of the same molecule?
**A.** 93.4%

**Q.** And the viability at 3 day, 3 µM [3]?
**A.** 104%

**Q.** What about the viability at 3 day, 3 µM [4] of the same molecule?
**A.** 120%

**Q.** What about the viability at 3 day, 3 µM [1] of the same molecule?
**A.** 100%

**Q.** What about the viability at 3 day, 3 µM [2] of the same molecule?
**A.** 91.2%

**Q.** And the viability at 3 day, 9.5 µM [3]?
**A.** 94.9%

**Q.** What about the viability at 3 day, 9.5 µM [4] of the same molecule?
**A.** 108%

**Q.** What about the viability at 3 day, 9.5 µM [1] of the same molecule?
**A.** 89.3%

**Q.** What about the viability at 3 day, 9.5 µM [2] of the same molecule?
**A.** 87.6%

**Q.** What about the viability at 3 day, 30 µM [3] of the same molecule?
**A.** 51.5%

**Q.** And the viability at 3 day, 30 µM [4]?
**A.** 60.8%

**Q.** And the viability at 3 day, 30 µM [1]?
**A.** 50%

**Q.** And the viability at 3 day, 30 µM [2]?
**A.** 43.6%

**Q.** What about the viability at 6 day, 0.01 µM [5] of the same molecule?
**A.** 103%

**Q.** What about the viability at 6 day, 0.01 µM [6] of the same molecule?
**A.** 97.8%

**Q.** What about the viability at 6 day, 0.01 µM [7] of the same molecule?
**A.** 106%

**Q.** What about the viability at 6 day, 0.01 µM [8] of the same molecule?
**A.** 107%

**Q.** What about the viability at 6 day, 0.03 µM [5] of the same molecule?
**A.** 102%

**Q.** What about the viability at 6 day, 0.03 µM [6] of the same molecule?
**A.** 99.8%

**Q.** What about the viability at 6 day, 0.03 µM [7] of the same molecule?
**A.** 100%

**Q.** And the viability at 6 day, 0.03 µM [8]?
**A.** 106%

**Q.** What about the viability at 6 day, 0.1 µM [5] of the same molecule?
**A.** 104%

**Q.** And the viability at 6 day, 0.1 µM [6]?
**A.** 105%

**Q.** What about the viability at 6 day, 0.1 µM [7] of the same molecule?
**A.** 101%

**Q.** And the viability at 6 day, 0.1 µM [8]?
**A.** 106%

**Q.** And the viability at 6 day, 0.3 µM [5]?
**A.** 107%

**Q.** What about the viability at 6 day, 0.3 µM [6] of the same molecule?
**A.** 108%

**Q.** And the viability at 6 day, 0.3 µM [7]?
**A.** 105%

**Q.** And the viability at 6 day, 0.3 µM [8]?
**A.** 109%

**Q.** And the viability at 6 day, 1 µM [5]?
**A.** 112%

**Q.** What about the viability at 6 day, 1 µM [6] of the same molecule?
**A.** 109%

**Q.** And the viability at 6 day, 1 µM [7]?
**A.** 116%

**Q.** What about the viability at 6 day, 1 µM [8] of the same molecule?
**A.** 111%

**Q.** What about the viability at 6 day, 3 µM [5] of the same molecule?
**A.** 113%

**Q.** What about the viability at 6 day, 3 µM [6] of the same molecule?
**A.** 115%

**Q.** And the viability at 6 day, 3 µM [7]?
**A.** 112%

**Q.** What about the viability at 6 day, 3 µM [8] of the same molecule?
**A.** 112%

**Q.** And the viability at 6 day, 9.5 µM [5]?
**A.** 70.8%

**Q.** What about the viability at 6 day, 9.5 µM [6] of the same molecule?
**A.** 69.6%

**Q.** What about the viability at 6 day, 9.5 µM [7] of the same molecule?
**A.** 71%

**Q.** What about the viability at 6 day, 9.5 µM [8] of the same molecule?
**A.** 71.9%

**Q.** And the viability at 6 day, 30 µM [5]?
**A.** 35.6%

**Q.** And the viability at 6 day, 30 µM [6]?
**A.** 34.7%

**Q.** And the viability at 6 day, 30 µM [7]?
**A.** 35.7%

**Q.** What about the viability at 6 day, 30 µM [8] of the same molecule?
**A.** 36.5%

**Q.** What about the viability at 3 day, 0.1 µM (MDA-MB-436 cells, MDA MB436, 3 day, read-out: viability Average) of the same molecule?
**A.** 105%

**Q.** And the viability at 3 day, 0.1 µM [9]?
**A.** 123%

**Q.** And the viability at 3 day, 0.1 µM [10]?
**A.** 102%

**Q.** What about the viability at 3 day, 0.1 µM (MDA-MB-436 cells, MDA MB436, 3 day, read-out: viability Replicate 3) of the same molecule?
**A.** 90.1%

**Q.** What about the viability at 3 day, 0.3 µM [9] of the same molecule?
**A.** 91.5%

**Q.** What about the viability at 3 day, 0.3 µM [10] of the same molecule?
**A.** 100%

**Q.** What about the viability at 3 day, 9.5 µM [11] of the same molecule?
**A.** 98.3%

**Q.** What about the viability at 3 day, 9.5 µM [12] of the same molecule?
**A.** 105%

**Q.** And the viability at 3 day, 9.5 µM [13]?
**A.** 96.6%

**Q.** What about the viability at 3 day, 9.5 µM [14] of the same molecule?
**A.** 93.4%

**Q.** What about the viability at 3 day, 30 µM [11] of the same molecule?
**A.** 54.9%

**Q.** And the viability at 3 day, 30 µM [12]?
**A.** 74.2%

**Q.** And the viability at 3 day, 30 µM [13]?
**A.** 34.5%

**Q.** What about the viability at 3 day, 30 µM [14] of the same molecule?
**A.** 56%

**Q.** What about the viability at 6 day, 0.01 µM [15] of the same molecule?
**A.** 102%

**Q.** And the viability at 6 day, 0.01 µM [16]?
**A.** 101%

**Q.** And the viability at 6 day, 0.01 µM [17]?
**A.** 102%

**Q.** What about the viability at 6 day, 0.01 µM [18] of the same molecule?
**A.** 102%

**Q.** And the viability at 6 day, 0.03 µM [15]?
**A.** 101%

**Q.** And the viability at 6 day, 0.03 µM [16]?
**A.** 100%

**Q.** What about the viability at 6 day, 0.03 µM [17] of the same molecule?
**A.** 101%

**Q.** What about the viability at 6 day, 0.03 µM [18] of the same molecule?
**A.** 102%

**Q.** And the viability at 6 day, 0.1 µM [15]?
**A.** 100%

**Q.** And the viability at 6 day, 0.1 µM [16]?
**A.** 96.9%

**Q.** What about the viability at 6 day, 0.1 µM [17] of the same molecule?
**A.** 102%

**Q.** What about the viability at 6 day, 0.1 µM [18] of the same molecule?
**A.** 102%

**Q.** What about the viability at 3 day, 0.01 µM [19] of the same molecule?
**A.** 98.4%

**Q.** What about the viability at 3 day, 0.01 µM [20] of the same molecule?
**A.** 97.7%

**Q.** And the viability at 3 day, 0.01 µM [21]?
**A.** 100%

**Q.** And the viability at 3 day, 0.01 µM [22]?
**A.** 97.6%

**Q.** And the viability at 3 day, 0.03 µM [19]?
**A.** 99.5%

**Q.** And the viability at 3 day, 0.03 µM [20]?
**A.** 97.9%

**Q.** What about the viability at 3 day, 0.03 µM [21] of the same molecule?
**A.** 100%

**Q.** And the viability at 3 day, 0.03 µM [22]?
**A.** 100%

**Q.** And the viability at 3 day, 0.1 µM [23]?
**A.** 101%

**Q.** And the viability at 3 day, 0.1 µM (RPMI-8226 multiple myeloma cells, 8226, 3 day, read-out: viability Replicate 1)?
**A.** 99.2%

**Q.** And the viability at 3 day, 0.1 µM (RPMI-8226 multiple myeloma cells, 8226, 3 day, read-out: viability Replicate 2)?
**A.** 101%

**Q.** And the viability at 3 day, 0.1 µM (RPMI-8226 multiple myeloma cells, 8226, 3 day, read-out: viability Replicate 3)?
**A.** 103%

**Q.** What about the viability at 3 day, 0.3 µM [23] of the same molecule?
**A.** 102%
